Results on one substance are retold here after patent publication US20130337486A1, “MICROFLUIDIC DEVICE FOR HIGH-[…] GRADIENT AND DOSE RESPONSE STUDIES” (UCSD Tech Transfer Office, priority 2005, published 2013).

In one experiment the test system is a-Type Yeast. The experiment can be described thus: Phenotypic dose response of single yeast cells to a pheromone gradient in the microfluidic device. It is filed as cell-based. The protocol:
(§1) Using a device of the invention such as that shown in FIG. 1, analysis of phenotypic dose response in single cells was performed. Yeast cells were grown in YPD media to mid-log phase, and concentrated 10-fold before loading into syringes. The maximum pheromone concentrations used in the experiments was typically 75-100 nM, with varying minimum and maximum ranges for specific experiments. Pheromone diffusion was estimated by fluorescence imaging of the diffusion of Alexa Fluor dye 555 Hydrozide (Molecular Probes), with the MW of approximately 1150 Da (cf. 1684 Da MW of the a-factor), which was used at the concentration of 5 μM. […]
(§2) Images were acquired using the Nikon Eclipse TE2000-U inverted epi-fluorescence microscope, using 20× (evaluation of the gradient values), and 100× (oil immersion; evaluation of yEGFP fluorescence) objectives. Phase contrast images were taken with automatic exposure control, whereas most fluorescence measurements involved manually specified fixed exposure times. Typical gradient measurements using Alexa Fluor 555 dye were obtained using red filter (G-2 EIC, 540/25 excitation wavelength) at a fixed exposure time of 1 sec, whereas yEGFP-mediated fluorescence was obtained using the green filter (YEL-GFP HQ, 500/20 excitation wavelength) at fixed exposure times of 3 secs. […]

Another experiment relates to Fus1-yEGFP. The experiment can be described thus: Fus1-yEGFP expression in yeast cell clusters exposed to a pheromone gradient. Type of experiment: cell-based. How it is done:
as §1, §2

Turning to α-factor, in the experiment on a-Type Yeast (75 nM uniform pheromone for 4 hrs), the “phenotype after pre-incubation in high uniform pheromone concentration” value is “shmoo formation by all cells”. In addition, the “pheromone concentration range in which percentages of budded (BD), cell cycle arrest (CCA) and SM cells were comparable” value in the experiment with a-Type Yeast (pheromone gradients from 0 up to 100 nM in test chambers) fell in the range of 15 to 40 nM. For the same substance, in the experiment on Fus1-yEGFP (six hours after exposure to 0-75 nM pheromone gradient), the “pheromone concentration range with clear bimodal nuclear Fus1-yEGFP response” value lay in the range of 15 to 45 nM. Besides, the “difference in Fus1-yEGFP expression between SM cells and cells of all other phenotypes in the bimodal region” value with Fus1-yEGFP (six hours, 0-75 nM pheromone gradient, bimodal region) is reported as “approximately 1.7 fold”.
